Patent publication US20240199608A1 (Eli Lilly and Company, priority 2022, published 2024)

molecular target: T1, Human AhR (Homo sapiens, UniProt P35869); assay: hAHR Nuclear Translocation Assay; type: cell-based; details: AhR-EGFP nuclear translocation in Jump-In T-REx HEK293 cells, 45 minutes incubation; class symbols; read-out: Rel EC50
T1 construct: expressed in transfected cells
T1 sequence (P35869 11-848): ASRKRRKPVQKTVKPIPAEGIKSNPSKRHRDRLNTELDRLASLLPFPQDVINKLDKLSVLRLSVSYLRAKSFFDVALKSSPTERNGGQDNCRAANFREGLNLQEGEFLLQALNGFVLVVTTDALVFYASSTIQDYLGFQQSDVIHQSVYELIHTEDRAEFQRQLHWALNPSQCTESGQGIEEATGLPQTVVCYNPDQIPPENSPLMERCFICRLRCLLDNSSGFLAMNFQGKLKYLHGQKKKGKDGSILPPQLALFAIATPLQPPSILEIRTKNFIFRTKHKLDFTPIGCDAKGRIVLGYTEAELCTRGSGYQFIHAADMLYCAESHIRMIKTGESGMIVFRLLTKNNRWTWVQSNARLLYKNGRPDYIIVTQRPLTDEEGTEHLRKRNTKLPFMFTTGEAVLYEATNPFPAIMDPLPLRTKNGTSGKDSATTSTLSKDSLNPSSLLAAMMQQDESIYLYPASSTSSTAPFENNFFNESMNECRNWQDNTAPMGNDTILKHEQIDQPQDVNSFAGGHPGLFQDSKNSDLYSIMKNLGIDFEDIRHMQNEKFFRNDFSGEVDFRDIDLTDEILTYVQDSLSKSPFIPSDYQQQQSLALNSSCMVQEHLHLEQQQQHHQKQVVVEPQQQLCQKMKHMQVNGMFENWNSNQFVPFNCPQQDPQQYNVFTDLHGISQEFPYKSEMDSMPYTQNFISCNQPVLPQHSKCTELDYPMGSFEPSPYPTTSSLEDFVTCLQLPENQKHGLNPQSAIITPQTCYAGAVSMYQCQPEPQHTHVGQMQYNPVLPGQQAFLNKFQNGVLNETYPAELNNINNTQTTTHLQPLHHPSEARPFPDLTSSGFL
Description: The purpose of this assay is to measure the ability of compounds to bind to, activate, and induce the translocation of AhR into the nucleus of a cell for transcription. Stable cell lines were established using Jump-InTM T-RExTM HEK293 Retargeting Kit (Life Technologies). Human AhR cDNA was cloned into the pJTI R4 CMV-TO EGFP vector. The EGFP was cloned to the C-terminal of AHR to form AhR-EGFP chimera. The pJTI R4 CMV-TO AhR-EGFP vector was transfected using FuGENE® HD into Jump-InTM T-RExTM HEK293 cells. Transfected cells were selected using 2.5 mg/ml G418 for 10 to 14 days, then expanded, harvested, and suspended in freeze media (FBS with 8% DMSO) at 2×10^7 cells/ml, and aliquots were stored in liquid nitrogen. One day before the assay date, cells were thawed and resuspended in DMEM with 5% FBS in the presence of 1 μg/ml Doxycycline and plated into ploy-L-Lysine coated […]-384 ULTRA Microplates (Perkin Elmer) at 12,000 to 15,000 cells per well and incubated at 37° C. and 5% CO2 overnight. On the assay date, compound was serially diluted (1:2) into 384-well nunc plates with DMSO using acoustic dispensing (ECHO®). The dose response was a 20-point curve. […] The culture media was damped and 25 μl of DMEM plus 0.1% BSA was added, then 25 μL of compound in DMEM plus 0.1% BSA was added into cell plates. Cells were incubated compounds at 37° C. and 5% CO2 for 45 minutes. The final DMSO concentration was 0.2%. The media was damped after 45 minutes incubation. The cells were fixed with 40 μl of cold MeOH (-20° C.) for 20 minutes. The MeOH was damped and 50 μL of DPBS containing 1 μg/mL Hochst was added into the cell plates. The intensity of EGFP was quantitated by using Opera PHENIX® or OPERETTA® high content image system (Perkin Elmer) with 20× Water Objective and five field per well. The ratio of EGFP fluorescent intensity in nuclear over cytosol was analyzed using a 4-parameter nonlinear logistic equation to determine the potency of AhR agonists.

| EC50 [nM] | Structure (SMILES) |
| --- | --- |
| 1 to 10 | CC1CCc2c1cc(C(=O)Nc1ccns1)c1nncn21 (single isomer, unassigned) [Example 38, N-(Isothiazol-5-yl)-6-methyl-7,8-dihydro-6H-cyclopenta[e][1,2,4] triazolo[4,3-a]pyridine-4-carboxamide] |
| 1 to 10 | CC1CCc2c1cc(C(=O)Nc1ccns1)c1nncn21 (single isomer, unassigned) [Example 39, N-(Isothiazol-5-yl)-6-methyl-7,8-dihydro-6H-cyclopenta[e][1,2,4] triazolo[4,3-a]pyridine-4-carboxamide] |
| 1 to 10 | CC1CCc2c1cc(C(=O)Nc1ccc(F)cn1)c1nncn21 (single isomer, unassigned) [Example 42, N-(5-Fluoropyridin-2-yl)-6-methyl-7,8-dihydro-6H-cyclopenta[e][1,2,4] triazolo[4,3-a]pyridine-4-carboxamide] |
| 1 to 10 | CC1CCc2c1cc(C(=O)Nc1ccc(F)cn1)c1nncn21 (single isomer, unassigned) [Example 43, N-(5-Fluoropyridin-2-yl)-6-methyl-7,8-dihydro-6H-cyclopenta[e][1,2,4]triazolo[4,3-a]pyridine-4-carboxamide] |
| > 50 | CC1CCc2c1cc(C(=O)Nc1ccno1)c1nncn21 (single isomer, unassigned) [Example 44, N-(Isoxazol-5-yl)-6-methyl-7,8-dihydro-6H-cyclopenta[e][1,2,4] triazolo[4,3-a]pyridine-4-carboxamide] |
| 10 to 50 | CC1CCc2c1cc(C(=O)Nc1ccno1)c1nncn21 (single isomer, unassigned) [Example 45, N-(Isoxazol-5-yl)-6-methyl-7,8-dihydro-6H-cyclopenta[e][1,2,4] triazolo[4,3-a]pyridine-4-carboxamide] |
| 1 to 10 | CC1CCc2c1cc(C(=O)Nc1ncc(Cl)cn1)c1nncn21 (single isomer, unassigned) [Example 46, N-(5-Chloropyrimidin-2-yl)-6-methyl-7,8-dihydro-6H-cyclopenta[e][1,2,4] triazolo[4,3-a]pyridine-4-carboxamide] |
| 1 to 10 | CC1CCc2c1cc(C(=O)Nc1ncc(Cl)cn1)c1nncn21 (single isomer, unassigned) [Example 47, N-(5-Chloropyrimidin-2-yl)-6-methyl-7,8-dihydro-6H-cyclopenta[e][1,2,4] triazolo[4,3-a]pyridine-4-carboxamide] |
| 10 to 50 | COc1cnc(NC(=O)c2cc3c(n4cnnc24)CCC3C)nc1 (single isomer, unassigned) [Example 48, N-(5-Methoxypyrimidin-2-yl)-6-methyl-7,8-dihydro-6H-cyclopenta[e][1,2,4] triazolo[4,3-a]pyridine-4-carboxamide] |
| 10 to 50 | COc1cnc(NC(=O)c2cc3c(n4cnnc24)CCC3C)nc1 (single isomer, unassigned) [Example 49, N-(5-Methoxypyrimidin-2-yl)-6-methyl-7,8-dihydro-6H-cyclopenta[e][1,2,4] triazolo[4,3-a]pyridine-4-carboxamide] |
| > 50 | CC(C)OC1CCc2c1cc(C(=O)Nc1ncc(F)cn1)c1nncn21 (single isomer, unassigned) [Example 50, N-(5-Fluoropyrimidin-2-yl)-6-isopropoxy-7,8-dihydro-6H-cyclopenta[e][1,2,4] triazolo[4,3-a]pyridine-4-carboxamide] |
| > 50 | CC(C)OC1CCc2c1cc(C(=O)Nc1ncc(F)cn1)c1nncn21 (single isomer, unassigned) [Example 51, N-(5-Fluoropyrimidin-2-yl)-6-isopropoxy-7,8-dihydro-6H-cyclopenta[e][1,2,4] triazolo[4,3-a]pyridine-4-carboxamide] |
| > 50 | Cc1nnc2c(C(=O)Nc3ncc(F)cn3)cc3c(n12)CCC3C (single isomer, unassigned) [Example 52, N-(5-Fluoropyrimidin-2-yl)-1,6-dimethyl-7,8-dihydro-6H-cyclopenta[e][1,2,4] triazolo[4,3-a]pyridine-4-carboxamide] |
| > 50 | Cc1nnc2c(C(=O)Nc3ncc(F)cn3)cc3c(n12)CCC3C (single isomer, unassigned) [Example 53, N-(5-Fluoropyrimidin-2-yl)-1,6-dimethyl-7,8-dihydro-6H-cyclopenta[e][1,2,4] triazolo[4,3-a]pyridine-4-carboxamide] |
| > 50 | CC(C)c1nnc2c(C(=O)Nc3ncc(F)cn3)cc3c(n12)CCC3C (single isomer, unassigned) [Example 54, N-(5-Fluoropyrimidin-2-yl)-1-isopropyl-6-methyl-7,8-dihydro-6H-cyclopenta[e][1,2,4] triazolo[4,3-a]pyridine-4-carboxamide] |
| > 50 | CC(C)c1nnc2c(C(=O)Nc3ncc(F)cn3)cc3c(n12)CCC3C (single isomer, unassigned) [Example 55, N-(5-Fluoropyrimidin-2-yl)-1-isopropyl-6-methyl-7,8-dihydro-6H-cyclopenta[e][1,2,4] triazolo[4,3-a]pyridine-4-carboxamide] |
| 1 to 10 | CCC1CCc2c1cc(C(=O)Nc1ncc(F)cn1)c1nncn21 (single isomer, unassigned) [Example 56, 6-Ethyl-N-(5-fluoropyrimidin-2-yl)-7,8-dihydro-6H-cyclopenta[e][1,2,4] triazolo[4,3-a]pyridine-4-carboxamide] |
| 1 to 10 | CCC1CCc2c1cc(C(=O)Nc1ncc(F)cn1)c1nncn21 (single isomer, unassigned) [Example 57, 6-Ethyl-N-(5-fluoropyrimidin-2-yl)-7,8-dihydro-6H-cyclopenta[e][1,2,4] triazolo[4,3-a]pyridine-4-carboxamide] |
| 1 to 10 | CC(C)C1CCc2c1cc(C(=O)Nc1ncc(F)cn1)c1nncn21 (single isomer, unassigned) [Example 58, N-(5-Fluoropyrimidin-2-yl)-6-isopropyl-7,8-dihydro-6H-cyclopenta[e][1,2,4] triazolo[4,3-a]pyridine-4-carboxamide] |
| 10 to 50 | CC(C)C1CCc2c1cc(C(=O)Nc1ncc(F)cn1)c1nncn21 (single isomer, unassigned) [Example 59, N-(5-Fluoropyrimidin-2-yl)-6-isopropyl-7,8-dihydro-6H-cyclopenta[e][1,2,4] triazolo[4,3-a]pyridine-4-carboxamide] |
| 10 to 50 | CCC(C)C1CCc2c1cc(C(=O)Nc1ncc(F)cn1)c1nncn21 (single isomer, unassigned) [Example 60, 6-(sec-butyl)-N-(5-Fluoropyrimidin-2-yl)-7,8-dihydro-6H-cyclopenta[e][1,2,4] triazolo[4,3-a]pyridine-4-carboxamide] |
| 1 to 10 | CC1CCc2c1cc(C(=O)Nc1cnn(C)n1)c1nncn21 (single isomer, unassigned) [Example 61, 6-Methyl-N-(2-methyl-2H-1,2,3-triazol-4-yl)-7,8-dihydro-6H-cyclopenta[e][1,2,4] triazolo[4,3-a]pyridine-4-carboxamide] |
| 10 to 50 | CC1CCc2c1cc(C(=O)Nc1cnn(C)n1)c1nncn21 (single isomer, unassigned) [Example 62, 6-Methyl-N-(2-methyl-2H-1,2,3-triazol-4-yl)-7,8-dihydro-6H-cyclopenta[e][1,2,4] triazolo[4,3-a]pyridine-4-carboxamide] |
